Measurements taken from the NIST ThermoML archive (doi:10.1021/je0503296).

Details: Liquid, Vibrating object- edge clamped plate

CCCCCCCC [octane]
Details	mass density [kg/m3]	viscosity [mPa·s]
323.15 K, 100 kPa	676	0.3892
323.15 K, 10096 kPa	687.7	0.44
323.15 K, 20701 kPa	698.1	0.495
323.15 K, 30654 kPa	706.7	0.53
323.15 K, 41050 kPa	714.6	0.576
323.15 K, 54543 kPa	723.9	0.633
323.15 K, 68036 kPa	732.2	0.693
348.14 K, 100 kPa	654.3	0.3011
348.14 K, 7551 kPa	664.7	0.3338
348.14 K, 13680 kPa	672.2	0.3513
348.14 K, 20500 kPa	679.4	0.378
348.14 K, 27466 kPa	686.1	0.4008
348.14 K, 27469 kPa	686.1	0.4
348.14 K, 34305 kPa	692.1	0.424
348.14 K, 34314 kPa	690.8	0.424
348.14 K, 41226 kPa	697.9	0.449
348.14 K, 41227 kPa	697.8	0.449
348.14 K, 48070 kPa	703.1	0.471
348.14 K, 55000 kPa	708.2	0.498
348.14 K, 55004 kPa	708.1	0.499
348.14 K, 61992 kPa	714.2	0.522
348.14 K, 61994 kPa	712.8	0.533
373.12 K, 6723 kPa	644.7	0.2757
373.12 K, 6724 kPa	644.6	0.2758
373.12 K, 20592 kPa	662.9	0.3205
373.12 K, 20599 kPa	662.9	0.3217
373.12 K, 27397 kPa	670.3	0.3429
373.12 K, 27402 kPa	670.4	0.3429
373.12 K, 34317 kPa	677.1	0.3646
373.12 K, 34324 kPa	677.2	0.3649
373.12 K, 41184 kPa	683.5	0.381
373.12 K, 41207 kPa	683.6	0.38
373.12 K, 41221 kPa	683.6	0.384
373.12 K, 48024 kPa	689.2	0.409
373.12 K, 48032 kPa	689.1	0.409
373.12 K, 54853 kPa	694.6	0.433
373.12 K, 54866 kPa	694.6	0.432
373.12 K, 61686 kPa	699.8	0.447
373.12 K, 61704 kPa	699.8	0.449
423.09 K, 14725 kPa	620.5	0.229
423.09 K, 27159 kPa	638.8	0.252
423.09 K, 40831 kPa	655.5	0.287
423.09 K, 54591 kPa	668.8	0.344
423.09 K, 68420 kPa	676.4	0.352

Cc1ccccc1 [toluene]
Details	mass density, 323.15 K [kg/m3]	mass density, 373.11 K [kg/m3]	viscosity, 323.15 K [mPa·s]	viscosity, 373.11 K [mPa·s]
100 kPa	837	–	0.421	–
13270 kPa	–	807.3	–	0.2924
13940 kPa	850.7	–	0.482	–
26975 kPa	–	822.5	–	0.3398
27338 kPa	861.7	–	0.524	–
40789 kPa	–	834.2	–	0.3691
41055 kPa	871.5	–	0.571	–
54593 kPa	880.1	–	0.615	–
54631 kPa	–	845	–	0.419
68135 kPa	888.1	–	0.66	–
68196 kPa	–	853.4	–	0.436
